This is an account of results in patent US9526796B2, “Peptide-based in vivo siRNA delivery system” (priority 2010, dated 2016).

Non-standard residues stand in square brackets, D forms with d. No end group written: not given here. *: point of attachment. Cbz = O=C(OCc1ccccc1)*

The assay deals with ApoB. Description: Knockdown of endogenous serum ApoB in mice after co-injection of masked melittin delivery peptide and ApoB siRNA-cholesterol conjugate. It counts as in vivo. The protocol:
RNAi polynucleotide conjugates and masked melittin peptides were synthesized as described above. Six to eight week old mice (strain C57BL/6 or ICR, ˜18-20 g each) were obtained from Harlan Sprague Dawley (Indianapolis Ind.). Mice were housed at least 2 days prior to injection. Feeding was performed ad libitum with Harlan Teklad Rodent Diet (Harlan, Madison Wis.). Mice were injected with 0.2 mL solution of delivery peptide and 0.2 mL siRNA conjugates into the tail vein. For simultaneous injection of delivery peptide and siRNA, the siRNA-conjugate was added to modified peptide prior to injection and the entire amount was injected. The composition was soluble and nonaggregating in physiological conditions. Solutions were injected by infusion into the tail vein.
Mice were fasted for 4 h (16 h for rats) before serum collection by submandibular bleeding. For rats blood was collected from the jugular vein. Serum ApoB protein levels were determined by standard sandwich ELISA methods. Briefly, a polyclonal goat anti-mouse ApoB antibody and a rabbit anti-mouse ApoB antibody (Biodesign International) were used as capture and detection antibodies respectively. An HRP-conjugated goat anti-rabbit IgG antibody (Sigma) was applied afterwards to bind the ApoB/antibody complex. Absorbance of tetramethyl-benzidine (TMB, Sigma) colorimetric development was then measured by a Tecan Safire2 (Austria, Europe) microplate reader at 450 nm.
Melittin was reversibly modified with CDM-NAG as described above. The indicated amount of melittin was then co-injected with the 200 μg ApoB siRNA-cholesterol conjugate. Effect on ApoB levels were determined as described above.
Melittin was reversibly modified with CDM-NAG as described above. The indicated amount of melittin was then co-injected with 50 μg ApoB siRNA-cholesterol conjugate. Effect on ApoB levels were determined as described above.
Melittin was reversibly modified with CDM-NAG (5×) as described above. The indicated amount of melittin was then co-injected with the indicated amount of ApoB siRNA-cholesterol conjugate. Effect on ApoB levels were determined as described above.
Melittin was reversibly modified with the indicated amount of CDM-NAG as described above. 50 μg melittin was then co-injected with the 100 μg ApoB siRNA-cholesterol conjugate. Effect on ApoB levels were determined as described above.
Melittin peptides having the indicated sequence were reversibly modified with CDM-NAG (5×) as described above. The indicated amount of melittin was then co-injected with the indicated amount of ApoB siRNA-cholesterol conjugate. Effect on ApoB levels were determined as described above.
Melittin peptides containing the indicated PEG amino terminal modifications were synthesized as described above. The PEG amino terminal modified melittin peptides were then reversibly modified with 5×CDM-NAG as described above. The indicated amount of Melittin was then co-injected with the 100-200 μg ApoB siRNA-cholesterol conjugate. Effect on ApoB levels were determined as described above. Addition of PEG less than 5 kDa in size decreased toxicity of the melittin peptides.

[1] abbreviates: CDM-NAG (5×), 100 μg peptide per mouse, 100 μg siRNA per mouse.
The mark [2] stands for this setting: CDM-NAG (5×), 400 μg peptide per mouse, 100 μg siRNA per mouse.
The mark [3] stands for this setting: CDM-NAG (5×), 100 μg peptide per mouse, 50 μg siRNA per mouse.
The mark [4] stands for this setting: CDM-NAG (5×), 400 μg peptide per mouse, 200 μg siRNA per mouse.

In the case of “C-Mel G1L (Seq ID 51): melittin peptide derivative (CLIGAILKVLATGLPTLISWIKNKRKQ; N-terminal cysteine; melittin-like peptide derive from Apis florea)”, the percent knockdown under setting [1] came to 89%.

Substance “G1L Mel (1-23) (Seq ID 71): melittin peptide derivative (LIGAILKVLATGLPTLISWIKNK; melittin-like peptide derive from Apis florea)” showed a percent knockdown under setting [2] of 69%. Under setting [1], “G1L, R24A (Seq ID 30): melittin peptide derivative (LIGAILKVLATGLPTLISWIKNKAKQ; melittin-like peptide derive from Apis florea)” returned a percent knockdown of 87%. Still for that read-out and setting: the same measure for “CFK-G1L dMel-C (Seq ID 69): melittin peptide derivative (CFKLIGAILKVLATGLPTLISWIKNKRKQC; not fully specified (some residues); cysteine pairing not given here)”: 79%. Substance “G1F dMel (Seq ID 4): melittin peptide derivative ([dF][dI]G[dA][dI][dL][dK][dV][dL][dA][dT]G[dL][dP][dT][dL][dI][dS][dW][dI][dK][dN][dK][dR][dK][dQ])” gave a percent knockdown under setting [3] of 94%. Ac-CIGAVLKVLTTGLPALISWIKRKRQQ-NH2 displayed a percent knockdown under setting [4] of 85%.

As for “Leu-Melittin (Seq ID 7) L form: G1L melittin peptide, L form amino acids (LIGAILKVLATGLPTLISWIKNKRKQ; melittin-like peptide derive from Apis florea)”, the “% knockdown” value is given as 74% (1× CDM-NAG, 100 μg siRNA, 50 μg peptide); 88% (2× CDM-NAG, 100 μg siRNA, 50 μg peptide); 15% (5× CDM-NAG, 50 μg siRNA, 25 μg peptide); 70% (5× CDM-NAG, 50 μg siRNA, 50 μg peptide); 90% (5× CDM-NAG, 50 μg siRNA, 100 μg peptide); 90% (5× CDM-NAG, 50 μg siRNA, 200 μg peptide). For the same substance, the “% knockdown” value came out at 90% (5× CDM-NAG, 50 μg siRNA, 400 μg peptide) and 82% (5× CDM-NAG, 100 μg siRNA, 50 μg peptide). The percent knockdown is listed as 0% (5× CDM-NAG, no PEG modification, 25 μg peptide, 100 μg siRNA); 72% (5× CDM-NAG, no PEG modification, 50 μg peptide, 100 μg siRNA); 94% (5× CDM-NAG, no PEG modification, 100 μg peptide, 100 μg siRNA). In the case of “G1L, K7R (Seq ID 19): melittin peptide derivative (LIGAILRVLATGLPTLISWIKNKRKQ; melittin-like peptide derive from Apis florea)”, under setting [1], the percent knockdown came out at 92%. Under setting [3], “G1L, T11C dMel (Seq ID 21): melittin peptide derivative ([dL][dI]G[dA][dI][dL][dK][dV][dL][dA][dC]G[dL][dP][dT][dL][dI][dS][dW][dI][dK][dN][dK][dR][dK][dQ])” registered a percent knockdown of 81%. The substance (Ac-CIGAVLKVLTTGLPALISWIKRKRQQ-NH2)2 came in with a percent knockdown under setting [4] of 45%. Consider “G1A (Seq ID 2): melittin peptide derivative (AIGAILKVLATGLPTLISWIKNKRKQ; melittin-like peptide derive from Apis florea)”, for which the percent knockdown under setting [1] is 88%. Under setting [2], “G1L, L5V, A10T, T15A Mel (1-23) (Seq ID 72): melittin peptide derivative” yielded a percent knockdown of 69%. The substance “CBZ-Mel (Seq ID 108): melittin peptide derivative (Cbz-GIGAILKVLATGLPTLISWIKNKRKQ)” returned a percent knockdown (CDM-NAG (5×), 100 μg peptide per mouse, 80 μg siRNA per mouse) of 96%. In the case of “G1Y Mel-PLGIAGQC (Seq ID 66): melittin peptide derivative (YIGAILKVLATGLPTLISWIKNKRKQPLGIAGQC; C-terminal PLGIAGQC extension; melittin-like peptide derive from Apis florea)”, the percent knockdown under setting [1] was 79%. Still for that read-out and setting: the same measure for “G1L retro-dMel-KLK-PEG(5k) (Seq ID 115): melittin peptide derivative (KLK[dQ][dK][dR][dK][dN][dK][dI][dW][dS][dI][dL][dT][dP][dL]G[dT][dA][dL][dV][dK][dL][dI][dA]G[dI][dL]; also: PEG 5k conjugated)”: 32%.

For the setting “CDM-NAG (5×), siRNA 20 mg/kg”, “QQRKRKIWSILAALGTTLVKLVAGIC-NH2 [Seq ID 95]” yielded a percent knockdown of 91%.

The substance “G1Y, K25A (Seq ID 31): melittin peptide derivative (YIGAILKVLATGLPTLISWIKNKRAQ; melittin-like peptide derive from Apis florea)” gave a percent knockdown under setting [1] of 77%.

For “QKRKNKIWSILTPLGTALVKLIAGIG-NH2 [Seq ID 96]”, where the note is “CDM-NAG (5×), siRNA 20 mg/kg”, the percent knockdown came out at 70%. On to “T11G, T15G, S18G (Seq ID 39): melittin peptide derivative (GIGAILKVLACGLPGLIGWIKNKRKQ; melittin-like peptide derive from Apis florea)”, for which the percent knockdown (CDM-NAG (5×), 50 μg peptide per mouse, 100 μg siRNA per mouse) came out at 32%. Regarding “G1L d(1-11)-1(12-26) (Seq ID 109): melittin peptide derivative ([dL][dI]G[dA][dI][dL][dK][dV][dL][dA][dT]GLPTLISWIKNKRKQ)”, under setting [1], the percent knockdown was 70%. Take “Apis Mellifera (Big Honey Bee; Seq ID 50): Apis mellifera melittin”: under setting [2], the percent knockdown worked out at 72%. In the case of “G1Y, K7N (Seq ID 16): melittin peptide derivative (YIGAILNVLATGLPTLISWIKNKRKQ; melittin-like peptide derive from Apis florea)”, the percent knockdown (CDM-NAG (5×), 80 μg peptide per mouse, 100 μg siRNA per mouse) is on record as 32%. On to “G1Y, K7A, K21A (Seq ID 35): melittin peptide derivative (YIGAILAVLATGLPTLISWIANKRKQ; melittin-like peptide derive from Apis florea)”, for which the percent knockdown under setting [1] is given as 14%. “G1Y, K7A (Seq ID 17): melittin peptide derivative (YIGAILAVLATGLPTLISWIKNKRKQ; melittin-like peptide derive from Apis florea)” displayed a percent knockdown under setting [2] of 83%.

“G1L, S18C (Seq ID 25): melittin peptide derivative (LIGAILKVLATGLPTLICWIKNKRKQ; melittin-like peptide derive from Apis florea)” registered a percent knockdown under setting [1] of 93%.

With “Acetyl-dMel-NH2 (Seq ID 107): melittin peptide derivative (Ac-G[dI]G[dA][dI][dL][dK][dV][dL][dA][dT]G[dL][dP][dT][dL][dI][dS][dW][dI][dK][dN][dK][dR][dK][dQ]-NH2; SMILES CC[C@@H](C)[C@@H](NC(=O)CNC(C)=O)C(=O)NCC(=O)N[C@H](C)C(=O)N[C@@H](C(=O)N[C@H](CC(C)C)C(=O)N[C@H](CCCCN)C(=O)N[C@@H](C(=O)N[C@H](CC(C)C)C(=O)N[C@H](C)C(=O)N[C@@H](C(=O)NCC(=O)N[C@H](CC(C)C)C(=O)N1CCC[C@@H]1C(=O)N[C@@H](C(=O)N[C@H](CC(C)C)C(=O)N[C@@H](C(=O)N[C@H](CO)C(=O)N[C@H](Cc1c[nH]c2ccccc12)C(=O)N[C@@H](C(=O)N[C@H](CCCCN)C(=O)N[C@H](CC(N)=O)C(=O)N[C@H](CCCCN)C(=O)N[C@H](CCCNC(=N)N)C(=O)N[C@H](CCCCN)C(=O)N[C@H](CCC(N)=O)C(N)=O)[C@H](C)CC)[C@H](C)CC)[C@H](C)O)[C@H](C)O)C(C)C)[C@H](C)CC)”, the percent knockdown under setting [1] amounted to 89%. As for “G1L retroMel-Stearoyl (Seq ID 74): melittin peptide derivative (QKRKNKIWSILTPLGTALVKLIAGIL; also: stearoyl, site not given here)”, under setting [2], the percent knockdown amounted to 56%.
